In patent US6500610B1, “Methods for identifying compounds for inhibiting of neoplastic lesions, and pharmaceutical compositions containing such compounds” (Cell Pathways, INC, priority 1997, dated 2002):
Read-outs that look alike come from different tables or passages of the source.

Key:
[1] = molecular target: T1, Peak A (PDE5) from SW480 cells (Homo sapiens, UniProt O76074); assay: cGMP hydrolysis inhibition, PDE peak A from SW480; type: biochemical
T1 construct: To isolate the novel phosphodiesterase from SW480, approximately four hundred million SW480 cells were grown to confluence; endogenous in cells; host or cells: SW480 colon cancer cells; DEAE-Trisacryl M fraction (peak A)

[2] = molecular target: T2, cGMP binding sites of the GST-cGB-PDE5 Protein (Homo sapiens, UniProt O76074); assay: cGMP binding assay with GST-cGB-PDE5 fusion protein; details: 3H-cGMP 2 μM
T2 construct: made in house; host or cells: E. coli BL21 (DE3)

[3] = tested on: cGMP PDE from human colon HT-29 cultured tumor cells; assay: cGMP PDE inhibition assay; type: biochemical
[4] = molecular target: T3, novel cGMP-specific PDE (Peak B) from SW480 cells (Homo sapiens, UniProt O00408); assay: cGMP hydrolysis inhibition, novel PDE peak B (Section IA) from SW480; type: biochemical
T3 construct: IC50 Peak B (μM)
T3 sequence (O00408 2-941): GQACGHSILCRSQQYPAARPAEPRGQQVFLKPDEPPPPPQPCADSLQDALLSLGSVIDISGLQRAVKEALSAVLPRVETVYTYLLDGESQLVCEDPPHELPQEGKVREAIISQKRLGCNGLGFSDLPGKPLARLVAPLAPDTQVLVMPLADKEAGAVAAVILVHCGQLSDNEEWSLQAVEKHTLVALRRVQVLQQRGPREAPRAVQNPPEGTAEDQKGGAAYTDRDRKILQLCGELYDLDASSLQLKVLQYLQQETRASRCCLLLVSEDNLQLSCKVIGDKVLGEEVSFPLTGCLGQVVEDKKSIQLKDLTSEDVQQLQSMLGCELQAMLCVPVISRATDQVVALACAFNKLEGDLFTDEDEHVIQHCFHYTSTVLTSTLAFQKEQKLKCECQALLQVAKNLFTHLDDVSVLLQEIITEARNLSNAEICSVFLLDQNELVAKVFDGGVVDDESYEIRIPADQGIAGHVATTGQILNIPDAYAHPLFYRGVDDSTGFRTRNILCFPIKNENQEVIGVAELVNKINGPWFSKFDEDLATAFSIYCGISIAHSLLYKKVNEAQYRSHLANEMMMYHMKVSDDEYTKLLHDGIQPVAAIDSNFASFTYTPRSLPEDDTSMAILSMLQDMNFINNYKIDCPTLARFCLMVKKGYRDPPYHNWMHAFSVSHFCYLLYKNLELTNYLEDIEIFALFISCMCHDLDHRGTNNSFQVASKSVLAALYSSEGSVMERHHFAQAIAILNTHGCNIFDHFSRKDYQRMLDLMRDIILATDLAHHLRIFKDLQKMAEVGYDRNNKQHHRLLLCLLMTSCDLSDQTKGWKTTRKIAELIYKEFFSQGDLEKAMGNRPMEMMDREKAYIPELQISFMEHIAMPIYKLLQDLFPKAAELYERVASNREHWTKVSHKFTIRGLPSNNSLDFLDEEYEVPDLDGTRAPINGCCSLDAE

[5] = molecular target: T4, cyclooxygenase (Type 1), COX-I (Ovis aries, UniProt P05979); assay: COX inhibition assay, purified cyclooxygenase; details: for COX-I inhibition: FIG. 5
T4 sequence (P05979 25-600): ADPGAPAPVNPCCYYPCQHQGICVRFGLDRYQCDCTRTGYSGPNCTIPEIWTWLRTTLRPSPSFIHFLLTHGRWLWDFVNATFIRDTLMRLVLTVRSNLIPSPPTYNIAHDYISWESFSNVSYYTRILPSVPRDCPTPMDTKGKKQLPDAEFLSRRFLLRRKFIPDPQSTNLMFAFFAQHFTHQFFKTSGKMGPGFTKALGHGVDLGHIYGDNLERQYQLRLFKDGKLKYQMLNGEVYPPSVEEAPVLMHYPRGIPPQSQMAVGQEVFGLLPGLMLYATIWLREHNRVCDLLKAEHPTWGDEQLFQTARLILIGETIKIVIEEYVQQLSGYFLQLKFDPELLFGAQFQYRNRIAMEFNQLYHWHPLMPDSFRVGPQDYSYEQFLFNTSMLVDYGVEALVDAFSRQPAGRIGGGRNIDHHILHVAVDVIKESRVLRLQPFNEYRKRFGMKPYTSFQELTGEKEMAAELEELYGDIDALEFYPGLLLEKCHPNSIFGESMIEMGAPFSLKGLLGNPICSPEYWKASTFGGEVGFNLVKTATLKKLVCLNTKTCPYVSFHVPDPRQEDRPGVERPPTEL

HT-29 cells [6] = assay: Growth inhibition, viable cell count after trypan blue staining; type: cell-based, human; details: HT-29, 120 μM
Method: Growth inhibition (15A top) was measured by counting viable cells after trypan blue staining. Apoptosis (15B bottom) was measured by morphological determination following staining with acridine orange and ethidium bromide as described previously (Duke and Cohen, in: Current Protocols in Immunology, 3.17.1-3.17.16, New York, John Wiley and Sons, 1992). […] All data were collected from the same experiment.

[7] = tested on: premalignant lesions in mouse mammary gland organ culture; assay: Mammary gland organ culture model; type: cell-based
Source text: Test compounds identified by the above methods can be tested for antineoplastic activity by their ability to inhibit the incidence of pre-neoplastic lesions in a mammary gland organ culture system. This mouse mammary gland organ culture technique has been successfully used by other investigators to study the effects of known antineoplastic agents such as certain NSAIDs, retinoids, tamoxifen, selenium, and certain natural products, and is useful for validation of the screening method of the present invention.
For example, female BALB/c mice can be treated with a combination of estradiol and progesterone daily, in order to prime the glands to be responsive to hormones in vitro. The animals are sacrificed, and thoracic mammary glands are excised aseptically and incubated for ten days in growth media supplemented with insulin, prolactin, hydrocortisone, and aldosterone. DMBA (7,12 dimethylbenz(a)anthracene) is added to medium to induce the formation of premalignant lesions. Fully developed glands are then deprived of prolactin, hydrocortisone, and aldosterone, resulting in the regression of the glands but not the pre-malignant lesions.
The test compound is dissolved in DMSO and added to the culture media for the duration of the culture period. At the end of the culture period, the glands are fixed in 10% formalin, stained with alum carmine, and mounted on glass slides. The incidence of forming mammary lesions is the ratio of the glands with mammary lesions to […]. The incidence of mammary lesions in test compound treated glands is compared with that of the untreated glands.
The extent of the area occupied by the mammary lesions can be quantitated by projecting an image of the gland onto a digitation pad. The area covered by the gland is traced on the pad and considered as 100% of the area. The space covered by each of the non-regressed structures is also outlined on the digitization pad and quantitated by the computer.
Mammary gland organ culture experiment were performed as previously described (Mehta and Moon, Cancer Research, 46:5832-5835, 1986). […]

HT-29 cells [8] = assay: cGMP and cAMP levels in HT-29 cells by radioimmunoassay; type: cell-based, human; details: HT-29 cells treated 30 minutes
HT-29 cells [9] = assay: Apoptosis and necrosis by morphology (acridine orange, ethidium bromide) in HT-29; type: cell-based, human
Source text: Apoptosis occurs naturally during normal tissue turnover and during embryonic development of organs and limbs. Apoptosis also is induced by cytotoxic T-lymphocytes and natural killer cells, by ionizing radiation and by certain chemotherapeutic drugs. Inappropriate regulation of apoptosis is thought to play an important role in many pathological conditions including cancer, AIDS, or Alzheimer's disease, etc. Compounds can be screened for induction of apoptosis using cultures of tumor cells maintained under conditions as described above. Treatment of cells with test compounds involves either pre- or post-confluent cultures and treatment for two to seven days at various concentrations. Apoptotic cells are measured in both the attached and “floating” compartments of the cultures. […]
Apoptotic and necrotic cell death was determined previously (Duke and Cohen, In: Current Protocols in Immunology, 3.17.1 -3.17.16, New York, John Wiley and Sons, 1992). […]
The apoptosis inducing activity for a series of phosphodiesterase inhibitors was determined. […] Apoptosis and necrosis were determined morphologically after acridine orange and ethidium bromide labeling in accordance with the assay described, supra.

HT-29 cells [10] = assay: Growth inhibition, SRB assay, HT-29; type: cell-based, human

`COc1cc(/C=C2/C(C)=C(CC(=O)NCc3ccccc3)c3cc(F)ccc32)cc(OC)c1OC` [Compound E, (Z)-5-Fluoro-2-methyl-1-(3,4,5-trimethoxybenzylidene)-3-indenylacetamide, N-benzyl] was tested, and the “competitive (with cGMP) binding to PDE 5 (peak A)” value [1] was “does competitively (with cGMP) bind to PDE 5”, the “competition with cGMP in binding of GST-cGB-PDE5” value (“competition with cGMP in binding” for short) [2] was “None of the PDE5 inhibitors showed any competition with cGMP” and the “cGMP PDE % Inhibition at 10 μM” value ([3]; 10 µM) was 75%. For the same compound, the “competitive (with cGMP) binding to PDE peak B” value [4] was “competitively (with cGMP) binds to PDE peak B” and the COX-I inhibition [5] was “neither test compound B and E significantly inhibit COX-I”.

For `CCCOc1ccccc1-c1nc2nn[nH]c2c(=O)[nH]1` [Zaprinast], the “competition with cGMP in binding” value [2] was “None of the PDE5 inhibitors showed any competition with cGMP”.

For `CSc1ccc(/C=C2/C(C)=C(CC(=O)O)c3cc(F)ccc32)cc1` [Sulindac sulfide], the “competition with cGMP in binding” value [2] was “None of the PDE5 inhibitors showed any competition with cGMP”, the “cGMP PDE % Inhibition at 10 μM” value [3] was 97% and the “growth inhibition, viable cell count time course” value (HT-29 cells [6]) was “capable of inhibiting tumor cell growth”. The “inhibition of formation of premalignant lesions” value [7] was “inactive”, the “increase of levels of cGMP” value (HT-29 cells [8]) was “greater than 50%” and the “levels of cAMP” value (HT-29 cells [8]) was “unaffected”. For the same compound, the “apoptosis, time course” value (HT-29 cells [9]; HT-29, 120 μM) was “accompanied by an increase in apoptosis” and the “apoptotic and necrotic cell death” value (HT-29 cells [9]; HT-29, treated six days) was “capable of causing apoptotic cell death without inducing necrosis”.

In the case of `CCCc1nn(C)c2c(=O)[nH]c(-c3cc(S(=O)(=O)N4CCN(C)CC4)ccc3OCC)nc12` [Sildenafil, reference compound], the “inhibition of activity of peak A” value [1] is reported as “inhibited activity of peak A”.

For `Clc1cccc(Nc2nnc(-c3ccccc3)c3ccccc23)c1` [MY5445, 1-(3-chloroanilino)-4-phenyphthalazine, reference compound], the “COX % Inhibition at 100 μM” value [5] was 94%.

In the case of `COc1cc(C=C2C(C)=C(CC(=O)O)c3cc(F)ccc32)cc(OC)c1OC` [Compound B, (Z)-5-Fluoro-2-methyl-1-(3,4,5-trimethoxybenzylidene)-3-acetic acid], the “competition with cGMP in binding” value [2] is reported as “None of the PDE5 inhibitors showed any competition with cGMP”, the “cGMP PDE % Inhibition at 10 μM” value [3] is reported as <25% and the COX-I inhibition [5] is reported as “neither test compound B and E significantly inhibit COX-I”.

For `CC1=C(CC(=O)O)c2cc(F)ccc2/C1=C\c1ccc([S+](C)[O-])cc1` (stereo not shown) [sulindac], the “inhibition of formation of premalignant lesions” value [7] was “effectively inhibit the formation of premalignant lesions”.

`CC1=C(CC(=O)O)c2cc(F)ccc2/C1=C\c1ccc(Cl)cc1` [Compound C, (Z)-5-Fluoro-2-methyl-1-(p-chlorobenzylidene)-3-acetic acid] was tested, and the “cGMP PDE % Inhibition at 10 μM” value [3] was <25% and the “Growth % Inhibition at 100 μM” value (HT-29 cells [10]) was 80%.

For `CC(=O)NC(CSC12CC(=O)OC1(C)/C(=C/c1ccc(S(C)(=O)=O)cc1)c1ccc(F)cc12)C(=O)O` (racemic) [D, rac-(E)-1-(butan-1′,4′-olido)-[3′,4′:1,2]-6-fluoro-2-methyl-3-(p-methylsulfonylbenzylidene)-1S-indanyl-N-acetylcysteine], the “COX % Inhibition at 100 μM” value [5] was <25% and the “Growth % Inhibition at 100 μM” value (HT-29 cells [10]) was 78%.

`COc1ccc(C2CNC(=O)C2)cc1OC1CCCC1` (stereo not shown) [Rolipram] was tested, and the “levels of cAMP” value (HT-29 cells [8]) was “increased cAMP”.
